According to EP0899270B1, “Indolylmethyl-N,N'-bisacylpiperazines as neurokinine receptor antagonists” (Solvay Pharmaceuticals GmbH, priority 1997, dated 1999):
Read-outs that look alike come from different tables or passages of the source.

How the values were obtained:
NK-1-Rezeptor = target: T1, NK-1-Rezeptor (Cavia porcellus, UniProt P30547); assay: Functional NK-1 antagonism on isolated guinea pig aorta rings in vitro (inhibition of Substanz P induced tone relaxation); set-up: species or system Pirbright-White Meerschweinchen; settings: aorta rings toned with Phenylephrin, stimulated with 0,01 µmol Substanz P; read-out: IC50 (halbmaximale Hemmung der Tonusrelaxation)
T1 construct: Ringpräparaten der Aorta von Pirbright-White Meerschweinchen; from tissue; host or cells: isolated aorta rings of Pirbright-White guinea pigs
Text: 3. Bestimmung des funktionellen NK-1-Antagonismus der Testsubstanzen an isoliertem Gewebe vom Meerschweinchen in vitro
Die NK-1-Rezeptor-antagonisierende Wirkung der Testsubstanzen wurde an isolierten, in einer oxygenierten Nährlösung gehaltenen Ringpräparaten der Aorta von Pirbright-White Meerschweinchen in vitro gemessen. Bestimmt wird die Hemmung der nach Stimulierung mit dem NK-1-Agonisten Substanz P hervorgerufenen Tonusrelaxation der Aortapräparate durch die Testsubstanzen.
Zur Messung der Kontraktion der Gefäßmuskulatur werden die Präparate an einem Haken fixiert, durch einen Faden mit einem Kraftmessungsgerät verbunden und die Kontraktionen werden jeweils an einem Schreiber registriert. Die Aortapräparate werden mit Phenylephrin tonisiert. Anschließend werden die NK-1-Rezeptoren der Präparate vor und nach der Gabe der Prüfsubstanz mit 0,01 µmol Substanz P stimuliert, wodurch eine Relaxation des Tonus herbeigeführt wird. Die Relaxationen vor und nach Gabe der Prüfsubstanz werden in Prozent quantifiziert. Als Kenngröße wird die Konzentration der halbmaximalen Hemmung (= IC50) errechnet, welche diejenige Konzentration angibt, bei der eine halbmaximale Hemmung der Tonusrelaxation eintritt.
In diesem Testmodell zeigten die in der folgenden Tabelle 2 aufgeführten Beispielsubstanzen die angegebenen IC50-Werte für die halbmaximale Hemmung : Tabelle 2: Funktioneller NK-1-Antagonismus der Testsubstanzen an isoliertem Meerschweinchen-Gewebe

humanen NK-1-Rezeptoren = target: T2, humanen NK-1-Rezeptoren (Homo sapiens, UniProt P25103); assay: Binding of test substances to NK-1 receptors in vitro ([3H]-Substanz P displacement, CHO cell membranes); settings: [3H]-Substanz P as ligand; membranes of CHO cells expressing human NK-1 receptor; Ki calculated from IC50; read-out: Ki-Wert für die Affinität zu humanen NK-1-Rezeptoren
T2 construct: expressed in transfected cells; host or cells: CHO cells (membrane preparation)
Text: 1. Bestimmung des Bindungsvermögens der Testsubstanzen an NK-1-Rezeptoren in vitro.
Die Affinität der Testsubstanzen zu humanen NK-1-Rezeptoren wird in vitro gemessen. Bestimmt wird die Hemmung der Bindung des physiologischen Neurokinins (Substanz P) an Neurokinin-1-Rezeptoren.
Die Rezeptor-Bindungsstudien werden mit [^3H]-Substanz P als Ligand durchgeführt. Für den Bindungsversuch werden verschiedene Proben einer Membranpräparation von CHO-Zellen (= […] des chinesischen Hamsters, […]), die den humanen NK-1-Rezeptor exprimieren, mit einer Lösung des markierten Liganden inkubiert, wobei die Inkubationsansätze keine Testsubstanz oder Zusätze unterschiedlicher Konzentrationen an Testsubstanz enthalten. Anschließend wird in den Proben jeweils eine Trennung von gebundenem und freiem Liganden mit Hilfe einer Glasfiber-Filtration vorgenommen. Die im Filter verbleibende Fraktion wird mehrmals mit Pufferlösung gewaschen und anschließend wird die Radioaktivität der im Filter verbliebenen Fraktion mit einem Beta-Scintillationszähler gemessen. Es wird als IC50 der jeweiligen Testsubstanz diejenige Konzentration bestimmt, welche eine halbmaximale Verdrängung des gebundenen Liganden bewirkt. Aus dieser wird die entsprechende Inhibitionskonstante (Ki-Wert) der Testsubstanz berechnet. […]

humanen NK-2-Rezeptoren = target: T3, humanen NK-2-Rezeptoren (Homo sapiens, UniProt P21452); assay: Binding of test substances to NK-2 receptors in vitro (SR 48,968 displacement, CHO cell membranes); settings: SR 48,968 as ligand; membranes of CHO cells expressing human NK-2 receptor; read-out: Ki (Affinität der Testsubstanzen zu humanen NK-2-Rezeptoren)
T3 sequence (P21452 1-398): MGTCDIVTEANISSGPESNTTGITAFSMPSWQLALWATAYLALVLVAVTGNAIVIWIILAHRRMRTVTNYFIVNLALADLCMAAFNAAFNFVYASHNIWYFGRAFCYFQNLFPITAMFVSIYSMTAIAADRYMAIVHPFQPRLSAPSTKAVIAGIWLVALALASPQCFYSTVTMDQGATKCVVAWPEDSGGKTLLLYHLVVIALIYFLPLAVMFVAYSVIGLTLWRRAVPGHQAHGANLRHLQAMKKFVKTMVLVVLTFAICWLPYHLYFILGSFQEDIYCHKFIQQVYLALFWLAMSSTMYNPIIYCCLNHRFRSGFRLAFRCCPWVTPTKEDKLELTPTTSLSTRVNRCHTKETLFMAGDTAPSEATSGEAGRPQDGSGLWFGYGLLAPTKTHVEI
Text: 2. Bestimmung des Bindungsvermögens der Testsubstanzen an NK-2-Rezeptoren in vitro
Die Affinität der Testsubstanzen zu humanen NK-2-Rezeptoren wird in vitro gemessen. Bestimmt wird die Hemmung der Bindung der Verbindung SR-48,968 an NK-2-Rezeptoren. SR-48,968 ist eine als spezifischer NK-2-Antagonist bekannte synthetisch hergestellte Verbindung.
Die Rezeptor-Bindungsstudien werden mit SR 48,968 als Ligand durchgeführt. Die Versuchsdurchführung entspricht der im pharmakologischen Test zur Bestimmung des Bindungsvermögens der Testsubstanzen an NK-1-Rezeptoren in vitro angegebenen Methode. Im Unterschied hierzu werden nunmehr aber verschiedene Proben einer Membranpräparation von CHO-Zellen verwendet, welche den humanen NK-2-Rezeptor exprimieren. In diesem Testmodell zeigten die in der folgenden Tabelle 1 aufgeführten Beispielsubstanzen die angegebenen Ki-Werte für die Affinität zu humanen NK-2-Rezeptoren: Tabelle 1: Affinität der Testsubstanzen zu humanen NK-2-Rezeptoren

[1] = test system: durch Substanz P induzierter Blutdrucksenkung; assay: Substance P antagonistic effect in vivo (Substanz P induced hypotension in guinea pigs); set-up: species or system Meerschweinchen; settings: Cavia porcellus, 1 h, 50 pmol Substanz P i.v., evaluated after 60 minutes, read-out: ED50 (50%ige Hemmung der Substanz P-induzierten Blutdrucksenkung)
Text: 4. Bestimmung der Substanz-P-antagonistischen Wirkung der Testsubstanzen in vivo.
Zum Nachweis der Substanz-P-antagonistischen Wirkung der Testsubstanzen wurde als Standardtestmodell für Substanz-P-induzierte pharmakologische Effekte die durch Substanz-P-Applikation hervorgerufene Hypotension in Meerschweinchen verwendet. Es wurde die Hemmwirkung der Testsubstanzen gegenüber durch Substanz P induzierter Blutdrucksenkung nach intravenöser (= i.v.) und intraduodenaler (= i.d.) Applikation der Testsubstanzen bestimmt.
Männlichen Meerschweinchen werden in Narkose (Ketamin 67 mg/ kg, Xylazine 13 mg/kg) jeweils ein Katheter in eine Arteria Carotis Communis und in eine Vena Jugularis implantiert. Der arterielle Katheter dient zur Blutdruckmessung. Die Messung erfolgt mit einem Statham 23d/B Druckaufnehmer. Über den venösen Zugang erfolgt die Gabe von Substanz P bzw. bei intravenöser Gabe auch die Applikation der Testsubstanz. Nach einer Äquilibrierungsphase von 20 Minuten werden 50 pmol/Tier Substanz P als Bolus i.v. appliziert. Danach erfolgt die Gabe der Testsubstanz. Bei der i.v. Untersuchung wird die Testsubstanz in Dosierungen von 0.1, 0.46 bzw. 1.0 µmol/kg einer Gruppe von jeweils 4 bis 6 Tieren intravenös appliziert. Die Kontrollgruppe erhält die entsprechende Menge einer physiologischen Kochsalzlösung. […]

T1 sequence (P30547 whole entry): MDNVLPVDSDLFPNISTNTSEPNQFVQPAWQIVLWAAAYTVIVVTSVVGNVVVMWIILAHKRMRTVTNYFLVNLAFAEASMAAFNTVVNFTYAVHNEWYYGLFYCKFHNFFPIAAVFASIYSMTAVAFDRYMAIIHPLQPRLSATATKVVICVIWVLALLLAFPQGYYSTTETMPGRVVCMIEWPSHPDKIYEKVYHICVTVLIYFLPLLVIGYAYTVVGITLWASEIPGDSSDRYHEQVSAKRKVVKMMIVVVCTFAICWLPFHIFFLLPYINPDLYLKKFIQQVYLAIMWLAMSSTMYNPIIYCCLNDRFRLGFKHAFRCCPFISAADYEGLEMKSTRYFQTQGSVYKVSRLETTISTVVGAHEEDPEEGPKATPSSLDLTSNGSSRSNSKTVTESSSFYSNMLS
T2 sequence (P25103 whole entry): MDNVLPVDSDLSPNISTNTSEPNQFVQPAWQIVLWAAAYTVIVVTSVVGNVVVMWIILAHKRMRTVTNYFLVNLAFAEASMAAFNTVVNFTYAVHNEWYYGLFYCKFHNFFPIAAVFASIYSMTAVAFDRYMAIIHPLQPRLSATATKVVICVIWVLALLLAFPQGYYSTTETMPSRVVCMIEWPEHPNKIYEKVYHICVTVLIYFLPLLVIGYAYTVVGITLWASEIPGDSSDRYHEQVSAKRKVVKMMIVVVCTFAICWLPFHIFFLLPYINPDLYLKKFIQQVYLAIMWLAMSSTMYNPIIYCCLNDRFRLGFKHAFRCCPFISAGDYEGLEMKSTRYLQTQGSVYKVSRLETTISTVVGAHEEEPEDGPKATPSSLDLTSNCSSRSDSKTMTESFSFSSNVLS

| IC50 (NK-1-Rezeptor) | Ki (humanen NK-2-Rezeptoren) | Structure (SMILES) | Ki (humanen NK-1-Rezeptoren) | ED50 ([1]; i.d.-Applikation) | ED50 ([1]; iv, i.v.-Applikation) |
| --- | --- | --- | --- | --- | --- |
| 1.2 nM | 50 nM | COc1ccccc1CN(C)CCNC(=O)N1CCN(C(=O)c2cc(C(F)(F)F)cc(C(F)(F)F)c2)C(Cc2c[nH]c3ccccc23)C1 (stereo not drawn) [Beispiel 2] | – | – | – |
| 1.5 nM | 300 nM | O=C(NCCNCc1ccc(F)cc1)N1CCN(C(=O)c2cc(C(F)(F)F)cc(C(F)(F)F)c2)C(Cc2c[nH]c3ccccc23)C1 (stereo not drawn) [Beispiel 3] | – | – | – |

| Structure (SMILES) | IC50 (NK-1-Rezeptor) | Ki (humanen NK-2-Rezeptoren) | Ki (humanen NK-1-Rezeptoren) | ED50 ([1]; i.d.-Applikation) | ED50 ([1]; iv, i.v.-Applikation) |
| --- | --- | --- | --- | --- | --- |
| COc1ccccc1CNCCNC(=O)N1CCN(C(=O)c2cc(C(F)(F)F)cc(C(F)(F)F)c2)[C@H](Cc2c[nH]c3ccccc23)C1 [Beispiel 1, (2R)-1-[3,5-Bis(trifluormethyl)benzoyl]-2-(1H-indol-3-ylmethyl)-4-(2-[N-(2-methoxybenzyl)aminoethyl]aminocarbonyl}piperazin] | 1 nM | 60 nM | 2.1 nM | 0.08 µmol/kg | 0.2 µmol/kg |
